Measured values as given in patent US20030097221A1, “Detection and characterization of psychoactives using parallel multi-site assays in brain tissue” (priority 2001, published 2003).
“And” between values parts separate entries of the source, which are not always exact repeats. Identical values can stand only once.

What was measured:
Type in all cases: cell-based, rat
[1] = test system: glutamate receptor-mediated evoked excitatory synaptic transmission, hippocampal slice CA1; assay: Paired-pulse evoked fEPSP in CA1, Schaffer collateral stimulation (assays SC50, SC200), MED64 multi-electrode array; design: key to SC 50 ms Amplitude fEPSP 1st, Mean / SC 50 ms Amplitude fEPSP 2nd, Mean / SC 200 ms Widths fEPSP 1st, Mean / SC 200 ms Widths fEPSP 2nd, Mean: fractional change vs. last 5 min of pre-wash-in control phase
Method: (§1) A 17-24 day old Sprague Dawley rat was decapitated after anesthesia with halothane (2-bromo-2-chloro-1,1,1-trifluoroethane; Sigma; B4388), and the whole brain was removed. The brain was immediately soaked for ˜2 min in ice-cold, oxygenated preparation buffer of the following composition (in mM): 124 NaCl, 26 NaHCO3, 10 glucose, 3 KCl, 1.25 NaH2PO4, 2 CaCl2, and 2 MgSO4. Appropriate portions of the brain were trimmed and placed on the ice-cold stage of a vibrating tissue slicer (Leica, Nussloch, Germany; VT-1000S). The stage was immediately filled with both oxygenated and frozen preparation buffers. The thickness of each tissue slice was 350 μm. Each slice was gently taken off the blade, and immediately soaked in the oxygenated artificial cerebrospinal fluid (ACSF) for at least 1 hr at room temperature. Then a slice was placed on the center of the MED probe. The slice was positioned to cover the 8×8 array. After positioning the slice, the MED probe was immediately placed in a box filled with 95% O2 and 5% CO2.
During recording, the slices were continuously perfused with a solution of the following composition: ACSF (in mM): 124 NaCl, 26 NaHCO3, 10 glucose, 3 KCl, 1.25 kH2PO4, 2 CaCl2, 1 MgSO4. All compounds were bath applied at known concentrations and were prepared daily from frozen aliquots. Compounds were purchased from Sigma. Ampakines (CX516, CX546, CX554) were made fresh everyday, and used at concentrations: CX516, 250 μM; CX546, 250 μM; and CX554, 30 μM.
Baseline, application, and recovery time was usually at 10, 20, and 30 min respectively.
During electrophysiological recording, the slices on the MED probe were placed in a small CO2 incubator (Asahi Lifescience; model 4020) at 32° C. The slices were placed on an interface, and a moisturized with a 95% O2 and 5% CO2 gas mixture.
Evoked field potentials at all 64 sites (minus stimulation sites) were recorded simultaneously with the multichannel recording system (Panasonic: MED64 system) at a 20 kHz sampling rate. In the case of the evoked response, one of the planar microelectrodes out of the 64 available was used for the stimulating cathode. Bipolar constant-current pulses (10-50 μA; 0.1 ms) were produced by the data acquisition software via the isolator. The stimulating microelectrode was selected by the 64-switch box.
All assays employ paired-pulse stimulation at various rat hippocampal sites to elicit evoked responses. The resulting field EPSP recordings were analyzed using Matlab software (The MathWorks, Inc.) by computing several response measures such as amplitude, halfwidth, and negative area, which apply to both the first and second evoked reponses. Amplitude was defined as the maximum depolarization magnitude relative to the average baseline reading prior to the first stimulation pulse. Halfwidth was defined as the duration of the depolarization phase of the evoked response at half its maximum amplitude value. Negative area was obtained by taking the magnitude of the integral of the evoked response curve over all segments with the same polarity as the depolarization phase. This integral spans a time window of 25 msec beginning one msec after the stimulation pulse.
Amplitudes and halfwidths for both first and second elicited responses were computed for assays SC50, SC200, and CA3-1—50. For DG50 only first and second amplitudes were computed. Negative areas for first and second responses were computed for SC50, SC200, CA3-1—50, and MF50.
All response paramters were utilized to quantify candidate sample composition effects on the hippocampus. For a given response parameter, the candidate sample composition effect was defined as the percent change of the average measure during the last five minutes of the wash-in phase with respect to the average measure of the last five minutes of the preceding, pre-wash-in control phase. […]

[2] = test system: glutamate receptor-mediated evoked excitatory synaptic transmission, hippocampal slice dentate gyrus; assay: Paired-pulse evoked fEPSP in dentate gyrus (assay DG50), MED64
Method: as §1, with “CO2. […]” for “CO2.”
(§2) Evoked field potentials at all 64 sites (minus stimulation sites) were recorded simultaneously with the multichannel recording system (Panasonic: MED64 system) at a 20 kHz sampling rate. […]
(§3) All assays employ paired-pulse stimulation at various rat hippocampal sites to elicit evoked responses. The resulting field EPSP recordings were analyzed using Matlab software (The MathWorks, Inc.) by computing several response measures such as amplitude, halfwidth, and negative area, which apply to both the first and second evoked reponses. Amplitude was defined as the maximum depolarization magnitude relative to the average baseline reading prior to the first stimulation pulse. […]
The polarity of the evoked responses for assay DG50 was reversed before analysis because of the inverted voltage values recorded by the DG50 electrode. Assays SC50, SC200, MF50, and CA3-1—50, however, were analyzed without such a reversal. […]
(§4) All response paramters were utilized to quantify candidate sample composition effects on the hippocampus. […]

[3] = test system: glutamate receptor-mediated evoked excitatory synaptic transmission, hippocampal slice mossy fibers; assay: Paired-pulse evoked fEPSP, mossy fibers (assay MF50), MED64; conditions: 250 μM; 50 ms inter-pulse delay
Method: A 17-24 day old Sprague Dawley rat was decapitated after anesthesia with halothane (2-bromo-2-chloro-1,1,1-trifluoroethane; Sigma; B4388), and the whole brain was removed. The brain was immediately soaked for ˜2 min in ice-cold, oxygenated preparation buffer of the following composition (in mM): 124 NaCl, 26 NaHCO3, 10 glucose, 3 KCl, 1.25 NaH2PO4, 2 CaCl2, and 2 MgSO4. Appropriate portions of the brain were trimmed and placed on the ice-cold stage of a vibrating tissue slicer (Leica, Nussloch, Germany; VT-1000S). The stage was immediately filled with both oxygenated and frozen preparation buffers. The thickness of each tissue slice was 350 μm. […]
as §2, §3

[4] = test system: hippocampal slice regions (CA1, DG, MF); assay: Comparison between regions of the slice, area under the curve for all 4 assays (FIG. 9); conditions: prediction drawn from the results of FIG. 9
Method: All assays employ paired-pulse stimulation at various rat hippocampal sites to elicit evoked responses. The resulting field EPSP recordings were analyzed using Matlab software (The MathWorks, Inc.) by computing several response measures such as amplitude, halfwidth, and negative area, which apply to both the first and second evoked reponses. Amplitude was defined as the maximum depolarization magnitude relative to the average baseline reading prior to the first stimulation pulse. Halfwidth was defined as the duration of the depolarization phase of the evoked response at half its maximum amplitude value. Negative area was obtained by taking the magnitude of the integral of the evoked response curve over all segments with the same polarity as the depolarization phase. This integral spans a time window of 25 msec beginning one msec after the stimulation pulse. […]
as §4
To compare the response of tissue slices to candidate sample compositions between different regions of the slice, the area under the curve for all 4 assays was calculated.
To compare the effect of compounds in candidate sample compositions between different regions of a tissue slice, the area under the curve for all 4 assays was calculated. […]

[5] = CX546 250 μM, individual slice files, normalized change over control
[6] = CX546 250 μM, n = 5, normalized change over control

half-width of both responses in CA1 ([1]; 250 μM, 50 ms or 200 ms delay between stimulation pulses): increase in the half-width
change of the first response (amplitude) ([1]; 250 μM, 50 ms protocol): no change
decrease in the second response amplitude ([1]; 250 μM, 50 ms protocol): 9±3%
effect on amplitude of both responses ([1]; 250 μM, 200 ms protocol): no effect
increase of the halfwidth of first and second fEPSP ([1]; 250 μM, 200 ms protocol, summary of Table 2): 14-15%
SC 50 ms Amplitude fEPSP 1st, Change over Control (%) ([1]; CX546 250 μM, n = 5): 3.296%
SC 50 ms Amplitude fEPSP 2nd, Change over Control (%) ([1]; CX546 250 μM, n = 5): −8.884%
SC 50 ms Widths fEPSP 1st, Change over Control (%) ([1]; CX546 250 μM, n = 5): 13.386%
SC 50 ms Widths fEPSP 2nd, Change over Control (%) ([1]; CX546 250 μM, n = 5): 3.276%
SC 200 ms Amplitude fEPSP 1st, Change over Control (%) ([1]; CX546 250 μM, n = 5): 3.764%
SC 200 ms Amplitude fEPSP 2nd, Change over Control (%) ([1]; CX546 250 μM, n = 5): 2.310%
SC 200 ms Widths fEPSP 1st, Change over Control (%) ([1]; CX546 250 μM, n = 5): 15.064%
SC 200 ms Widths fEPSP 2nd, Change over Control (%) ([1]; CX546 250 μM, n = 5): 16.206%
SC 50 ms Amplitude fEPSP 1st, Mean [1, 6]: 0.033
SC 50 ms Amplitude fEPSP 2nd, Mean [1, 6]: −0.089
SC 50 ms Widths fEPSP 1st, Mean [1, 6]: 0.134
SC 50 ms Widths fEPSP 2nd, Mean [1, 6]: 0.033
SC 200 ms Amplitude fEPSP 1st, Mean [1, 6]: 0.038
SC 200 ms Amplitude fEPSP 2nd, Mean [1, 6]: 0.023
SC 200 ms Widths fEPSP 1st, Mean [1, 6]: 0.151
SC 200 ms Widths fEPSP 2nd, Mean [1, 6]: 0.162
area of the second response (fEPSP) in CA1 ([1]; area under the curve, representative slices, FIG. 9): decreased
responses recorded in dentate gyrus (amplitude) ([2]; 250 μM, 50 ms inter-pulse delay): decrease in the amplitude
second response (fEPSP) in DG ([2]; area under the curve, representative slices, FIG. 9, CX546 250 μM, CX554 30 μM per Example 3): not noticeably altered
mossy fibers' response (area) [3]: increase
Structure (SMILES): O=C(c1ccc2c(c1)OCCO2)N1CCCCC1 [CX546]
kind of modulation of the responses in CA1 (halfwidth vs amplitude) ([1]; CX516, CX546 250 μM, CX554 30 μM): selectively increases halfwidth but not the amplitude
SC 50 ms Amplitude fEPSP 1st [1, 5]: 0.063 and 0.087 and 0.012 and −0.022 and 0.025
SC 50 ms Amplitude fEPSP 2nd [1, 5]: 0.022 and −0.124 (2×) and −0.130 and −0.088
SC 50 ms Widths fEPSP 1st [1, 5]: 0.096 and 0.155 and 0.114 and 0.202 and 0.102
SC 50 ms Widths fEPSP 2nd [1, 5]: 0.067 and 0.026 and −0.025 and 0.065 and 0.031
SC 200 ms Amplitude fEPSP 1st [1, 5]: 0.064 and 0.083 and 0.028 and −0.007 and 0.021
SC 200 ms Amplitude fEPSP 2nd [1, 5]: 0.047 and 0.061 and 0.011 and −0.015 and 0.013
SC 200 ms Widths fEPSP 1st [1, 5]: 0.089 and 0.166 and 0.141 and 0.252 and 0.105
SC 200 ms Widths fEPSP 2nd [1, 5]: 0.102 and 0.207 and 0.180 and 0.189 and 0.132
degree to which ampakines enhance activation of interneurons (rank order) [4]: CX554>CX546>CX516
